The target of experiment [1] is mitochondrial complex III (MiaPaCa-2 cells) (Homo sapiens, UniProt P00156). Kind of experiment: Complex III-dependent oxygen consumption in permeabilized cells, Seahorse XF-96. Type of experiment: cell-based. As to the method: (§1) Mitochondrial oxygen consumption was measured using the Seahorse XF-96 Extracellular Flux Analyzer (Agilent, North Billerica, MA)[3],[33],[67],[68]. To determine the intact cell mitochondrial function of MiaPaCa-2 cells in response to Mito-PEG-ATO analogs, we used the bioenergetic function assay previously described[2],[3]. […] From these measurements, indices of mitochondrial function were determined as previously described[2],[3]. For mitochondrial complex activities assays, after cells were treated with Mito-PEG-ATO analogs for 24 h, the OCR-based assessment of mitochondrial complex activities was carried out on acutely permeabilized cells in the presence of different mitochondrial substrates, i.e., pyruvate/malate for complex I and duroquinol for complex III[3],[32],[34],[69]. Rotenone, malonate, and antimycin A (Sigma-Aldrich, St. Louis, MO) were used as specific inhibitors of mitochondrial complexes I, II, and III, respectively. Briefly, cells that were intact after treatments were immediately permeabilized using the Seahorse XF Plasma Membrane Permeabilizer (Agilent). The mitochondrial complex I-induced OCR was assayed in mannitol and sucrose buffer[69] containing 10 mM pyruvate and 1.5 mM malate (substrates for complex I) and 10 mM malonate (which inhibits complex II activities). The mitochondrial complex III-driven OCR was assayed in a mannitol and sucrose buffer containing 0.5 mM duroquinol (substrate for complex III) as well as 1 µM rotenone and 10 mM malonate (which inhibit both complex I and II activities). The IC50 values were determined as previously reported.

The next experiment has as its system MiaPaCa-2 cells. Kind of experiment: Cell proliferation (cell confluence), IncuCyte Live-Cell Analysis System. It is filed as cell-based, human. The settings on record: for IC50: Homo sapiens; for Inhibition of cell proliferation in combination with AZD-3965: combined with AZD-3965. The procedure:
The following cell lines were obtained from the American Type Culture Collection (Manassas, VA), where they were regularly authenticated: MiaPaCa-2 (ATCC Cat# CRL-1420, human pancreatic cancer cells), U87MG (ATCC Cat# HTB-14, human brain cancer cells), A549 (ATCC Cat# CCL-185, lung cancer cells), and HCT-116 (ATCC Cat# CCL-247, colon cancer cells). All cell lines were grown at 37 °C in 5% carbon dioxide. MiaPaCa-2 cells were maintained in Dulbecco's Modified Eagle Medium (Thermo Fisher Scientific, Waltham, MA; Cat# 11965) supplemented with 10% fetal bovine serum. U87MG, A549, and HCT-116 cells were maintained in RPMI 1640 medium (Thermo Fisher Scientific, Cat# 11875), supplemented with 10% fetal bovine serum. All cells were stored in liquid nitrogen and used within 20 passages after thawing.
The IncuCyte Live-Cell Analysis System was used to monitor cell proliferation[3],[33],[67]. As shown in previous publications[3],[67], this imaging system is probe-free and noninvasive, and enables continuous monitoring of cell confluence over several days. The increase in the percentage of cell confluence was used as a surrogate marker of cell proliferation. In a 96-well plate, cells were plated at 1,000 cells per well in triplicates and left to adhere overnight. Cells were then treated with Mito-PEG-ATO analogs, and the cell confluency was recorded over several days in the IncuCyte Live-Cell Analysis System.

Experiment [2] deals with mitochondrial respiration (OCR) in intact MiaPaCa-2 cells. Briefly: Intact cell mitochondrial respiration (basal OCR), Seahorse XF-96. It is filed as cell-based, human. The settings on record: for OCR (pmol/min/µg protein): intact MiaPaCa-2 cells, baseline OCR, mean, n=4; for IC50: Homo sapiens, read-out: IC50, inhibition of basal OCR in intact cells. The procedure: as §1

[3] abbreviates: MiaPaCa-2 cells, 1 µM, control ~90% confluence.
Where [4] appears, read: MiaPaCa-2 cells, 3 µM, control ~90% confluence.
Where [5] appears, read: MiaPaCa-2 cells, 10 µM, control ~90% confluence.

Here are results for 6 molecules from paper PMC8948292, “Combining PEGylated mito-atovaquone with MCT and Krebs cycle redox inhibitors as a potential strategy to abrogate tumor cell proliferation” (Scientific Reports, 2022).

The structures appear in SMILES notation. Where two headings read alike, the source gives them in different places.

Sequence of mitochondrial complex III (MiaPaCa-2 cells) (P00156 whole entry): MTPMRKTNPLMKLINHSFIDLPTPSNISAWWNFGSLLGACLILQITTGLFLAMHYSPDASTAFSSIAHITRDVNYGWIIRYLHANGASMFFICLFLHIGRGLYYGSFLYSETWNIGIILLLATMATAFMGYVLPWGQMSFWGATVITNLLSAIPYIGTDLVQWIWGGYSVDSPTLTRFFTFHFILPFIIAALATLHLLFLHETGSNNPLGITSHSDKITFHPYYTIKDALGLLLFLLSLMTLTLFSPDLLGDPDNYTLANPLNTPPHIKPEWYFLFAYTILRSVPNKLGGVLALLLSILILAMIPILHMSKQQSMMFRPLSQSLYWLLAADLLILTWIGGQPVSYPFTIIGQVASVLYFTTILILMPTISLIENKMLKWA
Sequence of mitochondrial complex III (MiaPaCa-2 cells) (P47985 whole entry partner): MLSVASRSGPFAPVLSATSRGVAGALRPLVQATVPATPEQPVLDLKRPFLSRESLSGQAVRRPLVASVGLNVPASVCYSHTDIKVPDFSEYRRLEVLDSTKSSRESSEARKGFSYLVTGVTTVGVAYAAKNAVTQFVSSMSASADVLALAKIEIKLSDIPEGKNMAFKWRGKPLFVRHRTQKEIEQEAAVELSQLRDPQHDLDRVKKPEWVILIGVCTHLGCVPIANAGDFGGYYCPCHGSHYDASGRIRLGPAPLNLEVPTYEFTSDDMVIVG

Regarding `O=C1C(OCCOCC[P+](c2ccccc2)(c2ccccc2)c2ccccc2)=C([C@H]2CC[C@H](c3ccc(Cl)cc3)CC2)C(=O)c2ccccc21.[Br-]` [Mito-PEG2-ATO, [2-(2-((3-(trans-4-(4-chlorophenyl)cyclohexyl)-1,4-dioxo-1,4-dihydronaphthalen-2-yl)oxy)ethoxy)ethyl]triphenylphosphonium bromide], the “Complex III activity (OCR, % of control)” value in experiment [1] (0.01 µM) was 103.6 % of control; in experiment [1] (0.1 µM), 95.3 % of control; in experiment [1] (0.2 µM), 101.4 % of control; in experiment [1] (0.3 µM) it was 99.3 % of control; in experiment [1] (0.4 µM), 99.1 % of control; in experiment [1] (0.5 µM), 88.9 % of control. The “Complex III activity (OCR, % of control)” value is 75.4 % of control in experiment [1] (0.75 µM), 64.3 % of control in experiment [1] (1 µM) and 15.0 % of control in experiment [1] (3 µM). Moreover, the IC50 in experiment [1] (MiaPaCa-2 cells, 24 h treatment, antimycin A-inhibitable OCR, read-out: IC50, complex III-induced oxygen consumption (Complex III activity)) was 1.2 µM; in the experiment on MiaPaCa-2 cells (MIA PaCa-2, read-out: IC50, inhibition of cell proliferation), 0.3 µM; in experiment [2] (MIA PaCa-2, 24 h), 0.76 µM. For the same molecule, the “Cell confluence (% of control)” value is reported as 95.33 % of control with MiaPaCa-2 cells (MiaPaCa-2 cells, 0.003 µM, control ~90% confluence); 101.09 % of control with MiaPaCa-2 cells (MiaPaCa-2 cells, 0.01 µM, control ~90% confluence); 98.91 % of control in the experiment with MiaPaCa-2 cells (MiaPaCa-2 cells, 0.03 µM, control ~90% confluence); 101.49 % of control in the experiment on MiaPaCa-2 cells (MiaPaCa-2 cells, 0.05 µM, control ~90% confluence); 100.20 % of control in the experiment with MiaPaCa-2 cells (MiaPaCa-2 cells, 0.1 µM, control ~90% confluence); 91.59 % of control with MiaPaCa-2 cells (MiaPaCa-2 cells, 0.2 µM, control ~90% confluence). In addition, the “Cell confluence (% of control)” value is given as 54.02 % of control in the experiment on MiaPaCa-2 cells (MiaPaCa-2 cells, 0.3 µM, control ~90% confluence); 5.85 % of control in the experiment with MiaPaCa-2 cells (MiaPaCa-2 cells, 0.5 µM, control ~90% confluence); 3.35 % of control in the experiment on MiaPaCa-2 cells (setting [3]); 3.28 % of control in the experiment on MiaPaCa-2 cells (setting [4]); 2.85 % of control in the experiment on MiaPaCa-2 cells (setting [5]). Also, the “OCR (pmol/min/µg protein)” value in experiment [2] (0.01 µM, 24 h treatment) came out at 16.21 pmol/min/µg protein; in experiment [2] (0.1 µM, 24 h treatment), 14.62 pmol/min/µg protein; in experiment [2] (0.2 µM, 24 h treatment), 14.19 pmol/min/µg protein; in experiment [2] (0.3 µM, 24 h treatment), 13.58 pmol/min/µg protein; in experiment [2] (0.4 µM, 24 h treatment) it was 12.73 pmol/min/µg protein; in experiment [2] (0.5 µM, 24 h treatment), 10.74 pmol/min/µg protein. In addition, the “OCR (pmol/min/µg protein)” value in experiment [2] (0.75 µM, 24 h treatment) was 8.54 pmol/min/µg protein; in experiment [2] (1 µM, 24 h treatment) it was 6.82 pmol/min/µg protein; in experiment [2] (3 µM, 24 h treatment), 1.26 pmol/min/µg protein; in experiment [2] (10 µM, 24 h treatment), -0.10 pmol/min/µg protein.
Regarding `O=C(Cc1cccc(OC(F)(F)F)c1)Nc1ccc(CCCCc2nnc(NC(=O)Cc3ccccn3)s2)nn1` [CB-839, Telaglenastat, reference compound], the IC50 with MiaPaCa-2 cells (MIA PaCa-2, MiaPaCa-2 cells, inhibitor alone, control ~90% confluence, read-out: IC50 (cell proliferation) without Mito-PEG5-ATO) amounted to 19 µM. Further, in the experiment on MiaPaCa-2 cells (MiaPaCa-2 cells, combined with Mito-PEG5-ATO), the “Inhibition of cell proliferation in combination with Mito-PEG5-ATO (combination index)” value is listed as “exhibits synergy”.
In the case of `COCCOCCOCCOCCOC1=C([C@H]2CC[C@H](c3ccc(Cl)cc3)CC2)C(=O)c2ccccc2C1=O` [PEG4-ATO, 2-((2,5,8,11-tetraoxatridecan-13-yl)oxy)-3-(trans-4-(4-chlorophenyl)cyclohexyl)naphthalene-1,4-dione], the IC50 with MiaPaCa-2 cells (MIA PaCa-2, MiaPaCa-2 cells, determined when control cells reached ~90% confluence, read-out: IC50, inhibition of cell proliferation) was found to be 24 µM; in experiment [2] (MIA PaCa-2, MiaPaCa-2 cells, 24 h treatment) it was 22 µM. Moreover, the “Cell confluence (% of control)” value in the experiment with MiaPaCa-2 cells (setting [3]) was 96.77 % of control; in the experiment on MiaPaCa-2 cells (setting [4]) it was 98.45 % of control; in the experiment on MiaPaCa-2 cells (MiaPaCa-2 cells, 5 µM, control ~90% confluence), 92.22 % of control; in the experiment on MiaPaCa-2 cells (setting [5]) it was 88.90 % of control; in the experiment with MiaPaCa-2 cells (MiaPaCa-2 cells, 15 µM, control ~90% confluence), 79.02 % of control; in the experiment on MiaPaCa-2 cells (MiaPaCa-2 cells, 20 µM, control ~90% confluence), 50.78 % of control. Moreover, the “Cell confluence (% of control)” value in the experiment with MiaPaCa-2 cells (MiaPaCa-2 cells, 30 µM, control ~90% confluence) is 33.44 % of control; in the experiment on MiaPaCa-2 cells (MiaPaCa-2 cells, 35 µM, control ~90% confluence), 24.27 % of control; in the experiment with MiaPaCa-2 cells (MiaPaCa-2 cells, 40 µM, control ~90% confluence), 17.96 % of control; in the experiment with MiaPaCa-2 cells (MiaPaCa-2 cells, 50 µM, control ~90% confluence), 10.27 % of control. Besides, the “OCR (pmol/min/µg protein)” value is 14.02 pmol/min/µg protein in experiment [2] (1 µM, 24 h treatment); 11.47 pmol/min/µg protein in experiment [2] (3 µM, 24 h treatment); 8.99 pmol/min/µg protein in experiment [2] (10 µM, 24 h treatment); 8.66 pmol/min/µg protein in experiment [2] (15 µM, 24 h treatment); 8.14 pmol/min/µg protein in experiment [2] (17.5 µM, 24 h treatment); 6.77 pmol/min/µg protein in experiment [2] (20 µM, 24 h treatment). Besides, the “OCR (pmol/min/µg protein)” value came to 6.79 pmol/min/µg protein in experiment [2] (22.5 µM, 24 h treatment); 5.93 pmol/min/µg protein in experiment [2] (25 µM, 24 h treatment); 6.26 pmol/min/µg protein in experiment [2] (30 µM, 24 h treatment); 4.53 pmol/min/µg protein in experiment [2] (40 µM, 24 h treatment); 2.22 pmol/min/µg protein in experiment [2] (50 µM, 24 h treatment).
On to `[H]/N=C(/N)N/C(=N/[H])NCCc1ccccc1` [phenformin, reference compound], for which the “Inhibition of cell proliferation in combination with AZD-3965” value in the experiment on MiaPaCa-2 cells (MiaPaCa-2 cells) is given as “Synergistic inhibition”.
In the case of `CC(=O)N[C@@H](CS)C(=O)O` [N-acetylcysteine, reference compound], the “Restoration of cell proliferation in cells treated with Mito-PEG5-ATO” value in the experiment on MiaPaCa-2 cells (10 mM, cells treated with Mito-PEG5-ATO, not shown) is “did not restore cell proliferation”.
For the molecule `CN(C)C(=N)N=C(N)N` [metformin, reference compound], the “Inhibition of cell proliferation in combination with AZD-3965” value with MiaPaCa-2 cells (MiaPaCa-2 cells) is on record as “Synergistic inhibition”.
